Measured values as given in patent US6914045B2, “Glycopeptide antibiotics” (Wyeth Holdings Corporation, priority 2001, dated 2005).
In brackets after ≈: the same amount, converted by molar mass. Numbered stars: 1 amine (or outer) side, 2 acyl side, 3 side chain; on linkers, the order of the positions; unused ones are H or OH. Square brackets hold non-standard residues; d marks the D form. Peptide text beside a SMILES is read from it. * marks the point of attachment. ξ: configuration not given here. X1 = N=C1NCC(C(O)C(N[*:1])C(=O)[*:2])N1C1OC(CO)C(O)C(O)C1O; ξEnduracididine(βξ-OH,4'ξ) = N=C1NCC(C(O)C(N)C(=O)O)N1; X2 = OCC1OC(OC2C(CO)OC(*)C(O)C2O)C(O)C(O)C1O; ξCha(3ξ-Me) = CC(C1CCCCC1)C(N)C(=O)O; Cha = N[CH](CC1CCCCC1)C(=O)O

Key:
Test in all cases: in vitro antibacterial evaluation, MIC by broth dilution
Type in all cases: cell-based
Enterococcus sp. = conditions: broth dilution, 18 hours at 35° C.; for MIC Enterococcus faecalis (GC 2242): strain GC 2242; for MIC Enterococcus faecalis (GC 2691): strain GC 2691; for MIC Enterococcus faecalis (GC 3059): strain GC 3059
Experimental: (§1) Methods for in vitro Antibacterial Evaluation (Table 1)
(§2) The minimum inhibitory concentration (MIC), the lowest concentration of the antibiotic which inhibits growth of the test organism, is determined by the broth dilution method using Muller-Hinton II […] (Baltimore Biological Laboratories) following the recommendations of the National Committee for Clinical Laboratory Standards [Methods for dilution antimicrobial susceptibility tests for bacteria that grow aerobically, approved standard M7-A2, National Committee for Clinical Laboratory Standards, Villanova, Pa.].
(§3) An inoculum level of 5×10^5 CFU/mL, and a range of antibiotic concentrations (64-0.06 μg/mL) is used. […] The test organisms include a spectrum of Gram-positive bacteria comprised of Staphylococcus sp., Streptococcus sp. and Enterococcus sp. These organisms include recent clinical isolates that are resistant to methicillin, penicillin and/or vancomycin.

Streptococcus sp. = conditions: broth dilution, 18 hours at 35° C.; for MIC Streptococcus pneumoniae (ATCC 6301): strain ATCC 6301; for MIC Streptococcus pneumoniae (GC 1894): strain GC 1894; for MIC Streptococcus pyogenes (GC 4563): strain GC 4563; for MIC Streptococcus agalactiae (GC 4564): strain GC 4564; for MIC Streptococcus pneumoniae (GC 4565): strain GC 4565
Experimental: as §1, §2, §3

Staphylococcus sp. = conditions: broth dilution, 18 hours at 35° C.; for MIC Staphylococcus aureus (ATCC 29213): strain ATCC 29213; for MIC Staphylococcus aureus (GC 1131): strain GC 1131; for MIC Staphylococcus aureus (GC 3051): strain GC 3051; for MIC Staphylococcus aureus (GC 3053): strain GC 3053; for MIC Staphylococcus aureus (GC 4541): strain GC 4541; for MIC Staphylococcus aureus (GC 4542): strain GC 4542; for MIC Staphylococcus aureus-SMITH (GC 4543): strain GC 4543; for MIC Staphylococcus aureus (GC 4544): strain GC 4544; for MIC Staphylococcus aureus (GC 4545): strain GC 4545; for MIC Staphylococcus haemolyticus (GC 4546): strain GC 4546; for MIC Coagulase Negative Staphylococcus (GC 4547): strain GC 4547; for MIC Coagulase Negative Staphylococcus (GC 4548): strain GC 4548; for MIC Coagulase Negative Staphylococcus (GC 4549): strain GC 4549; for MIC Coagulase Negative Staphylococcus (GC 4551): strain GC 4551
Experimental: as §1, §2, §3

Escherichia coli = conditions: broth dilution, 18 hours at 35° C.; for MIC Escherichia coli (ATCC 25922): strain ATCC 25922; for MIC Escherichia coli (GC 4559): strain GC 4559; for MIC Escherichia coli (GC 4560): strain GC 4560
How it was run: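 Broth dilution MIC per NCCLS M7-A2 in Mueller-Hinton II medium, inoculum 5×10^5 CFU/mL, antibiotic range 64-0.06 μg/mL. MIC taken as lowest concentration inhibiting growth.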

## CC(C1CCCCC1)C1NC(=O)CNC(=O)C(CO)NC(=O)C(C(O)C2CNC(=N)N2C2OC(CO)C(O)C(O)C2O)NC(=O)C(C(O)C2CNC(=N)N2)NC(=O)C(Cc2ccc(OC3OC(CO)C(OC4OC(CO)C(O)C(O)C4O)C(O)C3O)cc2)NC1=O (stereo not drawn) [Example 51, Cyclo[3-cyclohexyl-2-aminobutanoyl-O-(4-O-hexopyranosylhexopyranosyl)tyrosyl-3-(2-iminoimidazolidin-4-yl)seryl-3-(3-hexopyranosyl-2-iminoimidazolidin-4-yl)-serylserylglycyl]] (cyclo(G[ξCha(3ξ-Me)]Y(X2)[ξEnduracididine(βξ-OH,4'ξ)][X1]S); configuration not given here)
Enterococcus sp.; strain ATCC 29212
  MIC Enterococcus faecalis (ATCC 29212): >64 mg/L
Enterococcus sp.
  MIC Enterococcus faecalis (GC 2242): 64 mg/L (≈ 49.2 µM)
  MIC Enterococcus faecalis (GC 2691): >64 mg/L
  MIC Enterococcus faecalis (GC 3059): >64 mg/L
Enterococcus sp.; strain GC 2243
  MIC Enterococcus faecium (GC 2243): >64 mg/L
Enterococcus sp.; strain GC 4552
  MIC Enterococcus faecalis (GC 4552): >64 mg/L
Enterococcus sp.; strain GC 4553
  MIC Enterococcus faecalis (GC 4553): >64 mg/L
Enterococcus sp.; strain GC 4554
  MIC Enterococcus faecalis (GC 4554): >64 mg/L
Enterococcus sp.; strain GC 4556
  MIC Enterococcus faecium (GC 4556): >64 mg/L
Enterococcus sp.; strain GC 4557
  MIC Enterococcus faecium (GC 4557): 16 mg/L (≈ 12.3 µM)
Enterococcus sp.; strain GC 4558
  MIC Enterococcus avium (GC 4558): 64 mg/L (≈ 49.2 µM)
Enterococcus sp.; strain GC 6189
  MIC Enterococcus faecalis (GC 6189): >64 mg/L
Streptococcus sp.
  MIC Streptococcus pneumoniae (ATCC 6301): 8 mg/L (≈ 6.15 µM)
  MIC Streptococcus pneumoniae (GC 1894): 4 mg/L (≈ 3.07 µM)
  MIC Streptococcus pyogenes (GC 4563): 8 mg/L (≈ 6.15 µM)
  MIC Streptococcus agalactiae (GC 4564): 16 mg/L (≈ 12.3 µM)
  MIC Streptococcus pneumoniae (GC 4565): 8 mg/L (≈ 6.15 µM)
Staphylococcus sp.
  MIC Staphylococcus aureus (ATCC 29213): 32 mg/L (≈ 24.6 µM)
  MIC Staphylococcus aureus (GC 1131): 32 mg/L (≈ 24.6 µM)
  MIC Staphylococcus aureus (GC 3051): 32 mg/L (≈ 24.6 µM)
  MIC Staphylococcus aureus (GC 3053): 64 mg/L (≈ 49.2 µM)
  MIC Staphylococcus aureus (GC 4541): 32 mg/L (≈ 24.6 µM)
  MIC Staphylococcus aureus (GC 4542): 32 mg/L (≈ 24.6 µM)
  MIC Staphylococcus aureus-SMITH (GC 4543): 32 mg/L (≈ 24.6 µM)
  MIC Staphylococcus aureus (GC 4544): 32 mg/L (≈ 24.6 µM)
  MIC Staphylococcus aureus (GC 4545): 32 mg/L (≈ 24.6 µM)
  MIC Staphylococcus haemolyticus (GC 4546): 32 mg/L (≈ 24.6 µM)
  MIC Coagulase Negative Staphylococcus (GC 4547): 16 mg/L (≈ 12.3 µM)
  MIC Coagulase Negative Staphylococcus (GC 4548): 16 mg/L (≈ 12.3 µM)
  MIC Coagulase Negative Staphylococcus (GC 4549): 4 mg/L (≈ 3.07 µM)
  MIC Coagulase Negative Staphylococcus (GC 4551): 64 mg/L (≈ 49.2 µM)
Escherichia coli
  MIC Escherichia coli (ATCC 25922): >64 mg/L
  MIC Escherichia coli (GC 4559): 64 mg/L (≈ 49.2 µM)
  MIC Escherichia coli (GC 4560): 8 mg/L (≈ 6.15 µM)

## CC(C1CCCCC1)C1NC(=O)CNC(=O)C(CO)NC(=O)C(C(O)C2CNC(=N)N2C2OC(CO)C(O)C(O)C2O)NC(=O)C(C(O)C2CNC(=N)N2)NC(=O)C(CC2CCCCC2)NC1=O (stereo not drawn) [Example 53, Cyclo[3-cyclohexylalanyl-3-(2-iminoimidazolidin-4-yl)seryl-3-(3-hexopyranosyl-2-iminoimidazolidin-4-yl)serylserylglycyl-3-cyclohexyl-2-aminobutanyl]] (cyclo(G[ξCha(3ξ-Me)][Cha][ξEnduracididine(βξ-OH,4'ξ)][X1]S); configuration not given here)
Enterococcus sp.; Enterococcus avium (GC 4558)
  MIC Enterococcus avium (GC 4558): 4 mg/L (≈ 4.14 µM)
Enterococcus sp.; Enterococcus faecalis (ATCC 29212)
  MIC Enterococcus faecalis (ATCC 29212): 8 mg/L (≈ 8.27 µM)
Enterococcus sp.; Enterococcus faecalis (GC 4552)
  MIC Enterococcus faecalis (GC 4552): 8 mg/L (≈ 8.27 µM)
Enterococcus sp.; Enterococcus faecalis (GC 4553)
  MIC Enterococcus faecalis (GC 4553): 4 mg/L (≈ 4.14 µM)
Enterococcus sp.; Enterococcus faecalis (GC 4554)
  MIC Enterococcus faecalis (GC 4554): 16 mg/L (≈ 16.5 µM)
Enterococcus sp.; Enterococcus faecalis (GC 6189)
  MIC Enterococcus faecalis (GC 6189): 4 mg/L (≈ 4.14 µM)
Enterococcus sp.; Enterococcus faecium (GC 2243)
  MIC Enterococcus faecium (GC 2243): 2 mg/L (≈ 2.07 µM)
Enterococcus sp.; Enterococcus faecium (GC 4556)
  MIC Enterococcus faecium (GC 4556): 8 mg/L (≈ 8.27 µM)
Enterococcus sp.; Enterococcus faecium (GC 4557)
  MIC Enterococcus faecium (GC 4557): 2 mg/L (≈ 2.07 µM)
Enterococcus sp.; strain ATCC 29212
  MIC Enterococcus faecalis (ATCC 29212): 8 mg/L (≈ 8.27 µM)
Enterococcus sp.
  MIC Enterococcus faecalis (GC 2242): 8 mg/L (≈ 8.27 µM)
  MIC Enterococcus faecalis (GC 2691): 8 mg/L (≈ 8.27 µM)
  MIC Enterococcus faecalis (GC 3059): 8 mg/L (≈ 8.27 µM)
Enterococcus sp.; strain GC 2243
  MIC Enterococcus faecium (GC 2243): 2 mg/L (≈ 2.07 µM)
Enterococcus sp.; strain GC 4552
  MIC Enterococcus faecalis (GC 4552): 8 mg/L (≈ 8.27 µM)
Enterococcus sp.; strain GC 4553
  MIC Enterococcus faecalis (GC 4553): 4 mg/L (≈ 4.14 µM)
Enterococcus sp.; strain GC 4554
  MIC Enterococcus faecalis (GC 4554): 16 mg/L (≈ 16.5 µM)
Enterococcus sp.; strain GC 4556
  MIC Enterococcus faecium (GC 4556): 8 mg/L (≈ 8.27 µM)
Enterococcus sp.; strain GC 4557
  MIC Enterococcus faecium (GC 4557): 2 mg/L (≈ 2.07 µM)
Enterococcus sp.; strain GC 4558
  MIC Enterococcus avium (GC 4558): 4 mg/L (≈ 4.14 µM)
Enterococcus sp.; strain GC 6189
  MIC Enterococcus faecalis (GC 6189): 4 mg/L (≈ 4.14 µM)
Streptococcus sp.
  MIC Streptococcus pneumoniae (ATCC 6301): 1 mg/L (≈ 1.03 µM)
  MIC Streptococcus pneumoniae (GC 1894): 1 mg/L (≈ 1.03 µM)
  MIC Streptococcus pyogenes (GC 4563): 1 mg/L (≈ 1.03 µM)
  MIC Streptococcus agalactiae (GC 4564): 1 mg/L (≈ 1.03 µM)
  MIC Streptococcus pneumoniae (GC 4565): 4 mg/L (≈ 4.14 µM)
Staphylococcus sp.
  MIC Staphylococcus aureus (ATCC 29213): 2 mg/L (≈ 2.07 µM)
  MIC Staphylococcus aureus (GC 1131): 4 mg/L (≈ 4.14 µM)
  MIC Staphylococcus aureus (GC 3051): 2 mg/L (≈ 2.07 µM)
  MIC Staphylococcus aureus (GC 3053): 4 mg/L (≈ 4.14 µM)
  MIC Staphylococcus aureus (GC 4541): 4 mg/L (≈ 4.14 µM)
  MIC Staphylococcus aureus (GC 4542): 2 mg/L (≈ 2.07 µM)
  MIC Staphylococcus aureus-SMITH (GC 4543): 2 mg/L (≈ 2.07 µM)
  MIC Staphylococcus aureus (GC 4544): 4 mg/L (≈ 4.14 µM)
  MIC Staphylococcus aureus (GC 4545): 2 mg/L (≈ 2.07 µM)
  MIC Staphylococcus haemolyticus (GC 4546): 1 mg/L (≈ 1.03 µM)
  MIC Coagulase Negative Staphylococcus (GC 4547): 2 mg/L (≈ 2.07 µM)
  MIC Coagulase Negative Staphylococcus (GC 4548): 2 mg/L (≈ 2.07 µM)
  MIC Coagulase Negative Staphylococcus (GC 4549): 1 mg/L (≈ 1.03 µM)
  MIC Coagulase Negative Staphylococcus (GC 4551): 2 mg/L (≈ 2.07 µM)
Escherichia coli
  MIC Escherichia coli (ATCC 25922): 128 mg/L (≈ 132 µM)
  MIC Escherichia coli (GC 4559): 128 mg/L (≈ 132 µM)
  MIC Escherichia coli (GC 4560): 4 mg/L (≈ 4.14 µM)
